Reference: US12590950B2, “Methods for predicting ER-mediated DNA damage” (UNIVERSITY OF MASSACHUSETTS, priority 2019, dated 2026)

How the values were obtained:
T47D cells [1] = experiment: γH2AX immunostaining (DNA damage) in T47D cells; type: cell-based, human; settings: T47D, 24 h; E2 10 or 100 nM, BP3 1 or 5 μM, PP 1 or 5 μM; vs control
Description: Immunostaining: Cells were grown in clearing media for 48 h and plated on 20 mm coverslip in 12 well plates with a density of 2×10^5 cells/well. […] Cells were washed with 1×PBS, blocked in 2% BSA/PBS with 0.1% Triton-X 100 for 1 hr at room temperature (RT), incubated overnight with γH2AX antibody (Cell Signaling #9718 S) or ERα antibody (Santa Cruz Biotechnology #sc-8002) at 4° C. and 1 hour with secondary antibody. S9.6: Cells were fixed in ice-cold 100% methanol for 10 min at −20° C., permeabilized in 100% acetone for 1 min at RT, blocked for 30 min in saline sodium citrate pH 7 (SSC, 4×), 3% BSA, 0.1% Triton-X and incubated with S9.6 (Kerafast #ENH001) 2 hr at RT followed by 1 h with secondary antibody. If indicated, slides were treated with RNase H (NEB #M0297L) for 4 hr at 37° C. prior to incubation with primary antibody. Stained cells were mounted with Vectashield mounting medium containing DAPI (Vector Laboratories #H-1200). Slides were imaged at 60× (immersion oil) with Nikon A1 Spectral Confocal microscope. Analysis of γH2AX and S9.6 intensity per nucleus or foci per nucleus was calculated using Nikon analysis software, where DAPI was used as a mask for the nucleus.

MCF-7 cells = experiment: 53BP1 immunostaining in MCF-7 cells; type: cell-based, human; settings: E2 10-100 nM, BP3 1-5 μM, PP 1-5 μM
T47D cells [2] = experiment: Cell proliferation assay (alamar blue) in T47D cells; type: cell-based, human
Description: Cell Proliferation Assay: T47D cells grown in clearing media for 72 h was plated as 100 μl of cells suspension having 5000 or 10000 cells per well on five 96 well plates (one for each day). The 96 well plate had 12 cell-free wells for a blank and 7 wells per treatment on each plate. After 24 h, 100 μl of E2, BP3 or PP containing media was added to appropriate wells on each plate to reach the desired final concentration in each well. All plates were maintained in a 37° C., 5% CO2 incubator until media was exchanged, on one plate per day, for 10% Alamar Blue in plating media. Plates were read at the same time each day at 4 hr and 8 hr after media exchange on a BioTek Synergy 2 plate reader (Winooski, VT) at 570 nm and 600 nm. Percent alamar blue reduction was calculated as per the following equation on the AlamarBlue protocol: […]

mammary epithelium = experiment: Acute oral exposure of ovariectomized mice: Ki67 proliferation of luminal epithelial cells; type: in vivo, mouse; settings: 4 days, E2 250, BP3 3,000, PP 10,000 μg/kg/day
From the text: Animal Treatment: Forty mature female mice (8 weeks old) BALB/c mice were purchased from Jackson Laboratory and housed in temperature-controlled facilities with a 12-hour alternating day/night light cycle and fed LabChow 5058 ad libitum. All procedures were in accordance with the national guidelines for the care and use of animals and approved by the University of Massachusetts Amherst's Institutional Animal Care and Use Committee.
The mice were ovariectomized before treatment. Briefly, each mouse was anaesthetized with a mix of isofluorance and oxygen. The flanks were shaved, sterilized with betadine and cleaned with alcohol. An incision was made to the skin on the right flank. The underlying muscle layer was nicked to reveal a small hole through which ovary was pulled out by grasping the periovarian fat. A Serrifin clamp was used to hold the ovary. After making sure the blood vessels were constricted to prevent […], the ovary was cut from the uterine horn. The periovarian fat was restored into the peritoneum. The peritoneum was closed with one or two stiches and the skin was closed with 9 mm wound clips. The procedure was repeated on the contralateral side. The mouse was monitored for a week post-procedure and wound clips were removed after 10 days. After 1 week of recovery, the mice began an acute oral treatment via pipette with one of three different compounds prepared in tocopherol-stripped corn oil for 4 days. Each mouse was administered 1 μL of oil per gram of body weight to deliver 250 μg/kg/d E2, 3000 μg/kg/d BP3 or 10000 μg/kg/d PP or vehicle control. […]
Immunostaining of mouse mammary gland: Freshly cut […] paraffin-embedded sections were deparaffinized/rehydrated with 100% xylenes 3 times for 5 min each, 2 times with 100% ethanol for 5 min each, 95% ethanol for 3 min and 70% ethanol for 3 min. […] Analysis of S9.6 intensity per nucleus or foci per nucleus were calculated using Nikon analysis software, where DAPI was used as a mask for the nucleus. […] Positive cells were counted using ImageJ software. 1200 cells were counted to determine percent Ki67 positive.

Compound | nuclear γH2AX intensity (T47D cells [1]) | 53BP1 nuclear intensity (MCF-7 cells) | Slope of growth curve (T47D cells [2]; 0.5 nM) | proliferation (Ki67) of mammary luminal epithelial cells (mammary epithelium) | Slope of growth curve (T47D cells [2]; 5 μM) | Slope of growth curve (T47D cells [2]; 50 μM) | proliferation (T47D cells [2]; 5 or 50 μM) | Slope of growth curve (T47D cells [2]; 1 μM) | Slope of growth curve (T47D cells [2]; 10 μM) | proliferation (T47D cells [2]; 10 μM)
C[C@]12CC[C@@H]3c4ccc(O)cc4CC[C@H]3[C@@H]1CC[C@@H]2O [E2, 17β-estradiol, reference compound] | dose-dependent increase | dose-dependent increases in 53BP1 nuclear intensity | 0.08495 | stimulated | – | – | – | – | – | –
COc1ccc(C(=O)c2ccccc2)c(O)c1 [BP3, 2-Hydroxy-4-methoxybenzophenone] | increased γH2AX intensity | dose-dependent increase | – | neither BP3 nor PP elicited significant responses | 0.0202 | 0.01581 | marginal effect | – | – | –
CCCOC(=O)c1ccc(O)cc1 [PP, propyl parahydroxybenzoate] | significantly higher γH2AX intensity | dose-dependent increases in 53BP1 nuclear intensity | – | neither BP3 nor PP elicited significant responses | – | – | – | 0.01856 | 0.06387 | stimulates significant proliferation
